Results on five compounds are retold here after ChEMBL document CHEMBL1201862, “PubChem BioAssay data set” (2004).

The structures appear in SMILES notation.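 All cell lines were grown in 96-well plates and treated with compound for 48 hours. GI50 = concentration required for 50% inhibition of growth.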 Calls of active or inactive are those of the source. Rule as the data show it: active = GI50 up to about 1.1 µM and inactive = higher. Numbered stars: 1 amine (or outer) side, 2 acyl side, 3 side chain; on linkers, the order of the positions; unused ones are H or OH. Bridge positions count the residues as written; N and C are the ends. Square brackets hold non-standard residues; d marks the D form. Peptide text beside a SMILES is read from it. X58 = COc1c(N[*:1])cccc1C(=O)O[C@H](C(=O)[C@H](C)C(=O)[*:2])C(C)C; X57 = CC(C)C[C@H](C(=O)[*:2])C(C)C(=O)C1CCCN1[*:1]; NMeY = CN[C@@H](Cc1ccc(O)cc1)C(=O)O; Lac = C[C@H](O)C(=O)O

Test systems include SK-MEL-28; OVCAR-4; K562; UACC-257; NCI-H226; MDA-N; SNB-19; SK-MEL-5; PC-3; HOP-92; OVCAR-8; 786-0; BT-549; HCT-15; SK-OV-3; SF-539; DU-145; NCI/ADR-RES; SF-268; HCT-116.
Common to all, as to experiment: inhibition of tumour cell growth, NCI panel, 48 h

For `CS(=O)(=O)c1cc(=O)c2ccccc2s1`, the GI50 is 3.72 µM (inactive) with SK-MEL-28; 2.9 µM (inactive) in the assay with OVCAR-4; 1.33 µM (inactive) in the assay on K562; 3.54 µM (inactive) in the assay on UACC-257; 13.7 µM (inactive) in the assay on NCI-H226; 4.46 µM (inactive) in the assay on MDA-N. Besides, the GI50 in the assay on SNB-19 was 17.5 µM (inactive); in the assay on SK-MEL-5, 14.3 µM (inactive); in the assay with PC-3, 17.6 µM (inactive); with HOP-92 it was 1.8 µM (inactive); in the assay on OVCAR-8, 2.93 µM (inactive); in the assay on 786-0, 5.55 µM (inactive). The GI50 in the assay with BT-549 was 19.3 µM (inactive); with HCT-15, 2.25 µM; in the assay on SK-OV-3, 17.6 µM (inactive); in the assay with SF-539, 13.2 µM (inactive); with DU-145, 16.1 µM (inactive); in the assay with NCI/ADR-RES, 18 µM (inactive). Besides, the GI50 in the assay with SF-268 is 14.1 µM (inactive); in the assay with HCT-116, 1.96 µM (inactive).
As to `Cc1ncc([N+](=O)[O-])n1CCN=[N+]=[N-]`, the GI50 in the assay with SK-MEL-28, in the assay with OVCAR-4, with K562, with UACC-257, in the assay on NCI-H226 and with MDA-N was > 100 µM (inactive) in each case. Moreover, the GI50 with SNB-19, with SK-MEL-5, with PC-3, in the assay on HOP-92, in the assay on OVCAR-8 and with 786-0 was > 100 µM (inactive) each time. Moreover, the GI50 was > 100 µM (inactive) in the assay on BT-549; over 100 µM with HCT-15; > 100 µM (inactive) with SK-OV-3; > 100 µM (inactive) with SF-539; > 100 µM (inactive) in the assay with DU-145; > 100 µM (inactive) with NCI/ADR-RES. The GI50 in the assay on SF-268 and with HCT-116 was > 100 µM (inactive) in each case.
Consider `O=c1[nH]/c(=C/c2ccc(OCc3ccccc3)cn2)c(=O)[nH]/c1=C/c1ccc(O)cc1`, for which the GI50 with SK-MEL-28 is 1.79 µM (inactive); in the assay on OVCAR-4, 0.219 µM (active); with K562, 0.859 µM (active); in the assay with UACC-257, 2.56 µM (inactive); with NCI-H226, 51.4 µM (inactive); with MDA-N, 0.129 µM (active). Also, the GI50 in the assay with SNB-19 was 2.15 µM (inactive); in the assay with SK-MEL-5, 2.07 µM (inactive); in the assay on PC-3 it was 1.13 µM (inactive); in the assay with HOP-92 it was 11.6 µM (inactive); with OVCAR-8, 0.877 µM (active); in the assay on 786-0, 0.612 µM (active). Moreover, the GI50 in the assay with BT-549 was 2.49 µM (inactive); in the assay on HCT-15, 0.501 µM; in the assay with SK-OV-3, 4.99 µM (inactive); in the assay with SF-539, 0.461 µM (active); in the assay on DU-145, 0.984 µM (active); in the assay on NCI/ADR-RES, 0.774 µM (active). For the same compound, the GI50 in the assay on SF-268 is 1.04 µM (active); with HCT-116 it was 1.08 µM (active).
In the case of `CCOC(=O)c1cccc(/N=N/Nc2cccc(C(=O)OCC)c2)c1`, the GI50 is > 100 µM (inactive) in the assay on SK-MEL-28; 20.9 µM (inactive) in the assay with OVCAR-4; 71.4 µM (inactive) in the assay on K562; 56.9 µM (inactive) with UACC-257; 43.5 µM (inactive) in the assay on NCI-H226; 5.66 µM (inactive) with MDA-N. For the same compound, the GI50 in the assay on SNB-19 is 20.6 µM (inactive); in the assay on SK-MEL-5, 23.4 µM (inactive); in the assay on PC-3, 34.4 µM (inactive); in the assay on HOP-92, 22.3 µM (inactive); with OVCAR-8, 25.5 µM (inactive); in the assay on 786-0 it was 17.9 µM (inactive). Further, the GI50 in the assay on BT-549 was > 100 µM (inactive); with HCT-15, over 100 µM; in the assay on SK-OV-3 it was 28.7 µM (inactive); in the assay with SF-539, 14.2 µM (inactive); in the assay on DU-145 it was > 100 µM (inactive); in the assay with NCI/ADR-RES it was 56.9 µM (inactive). The GI50 in the assay on SF-268 is 27 µM (inactive); with HCT-116 it was 31.9 µM (inactive).
Turning to `COc1ccc(C[C@H]2C(=O)O[C@H](C)[C@H](NC(=O)[C@@H](CC(C)C)C(C)C(=O)C3CCCN3C(=O)[C@H](C)O)C(=O)Nc3cccc(c3OC)C(=O)O[C@@H](C(C)C)C(=O)[C@H](C)C(=O)N[C@@H](CC(C)C)C(=O)N3CCC[C@H]3C(=O)N2C)cc1` (stereo not given in full) (H-[Lac][X57]T[X58]LP[NMeY](Me); ester 3-C), the GI50 in the assay with SK-MEL-28 is > 12.5 µM (inactive); in the assay with OVCAR-4, > 12.5 µM (inactive); in the assay on K562, 0.372 µM (active); in the assay with UACC-257 it was > 12.5 µM (inactive); in the assay with NCI-H226, 7.26 µM (inactive); in the assay with MDA-N, 10.1 µM (inactive). In addition, the GI50 in the assay on SNB-19 is 11 µM (inactive); in the assay with SK-MEL-5, > 12.5 µM (inactive); with PC-3, 3.85 µM (inactive); with HOP-92 it was > 12.5 µM (inactive); in the assay with OVCAR-8, > 12.5 µM (inactive); with 786-0, > 12.5 µM (inactive). The GI50 was > 12.5 µM (inactive) in the assay with BT-549; over 12.5 µM in the assay on HCT-15; > 12.5 µM (inactive) with SK-OV-3; > 12.5 µM (inactive) in the assay on SF-539; > 12.5 µM (inactive) in the assay with DU-145; > 12.5 µM (inactive) in the assay with NCI/ADR-RES. The GI50 in the assay with SF-268 was > 12.5 µM (inactive); in the assay on HCT-116 it was 6.12 µM (inactive).
